Source: patent US7247634B2, “Rifamycin derivatives effective against drug-resistant microbes” (Cumbre Pharmaceuticals Inc., priority 2004, dated 2007)
Values after ≈ are worked out from the molar mass of the structure shown.

Key:
Assay type in all cases: cell-based
[1] = test system: Staphylococcus epidermidis ATCC12228; test: MIC, microbroth dilution (NCCLS); settings: rifS strain, Cation-Adjusted Mueller-Hinton Broth, 37° C., read-out: Antimicrobial activity (MIC)
[2] = test system: Streptococcus pyogenes ATCC19615; test: MIC, microbroth dilution (NCCLS); settings: rifS strain, THY Broth, 37° C., read-out: Antimicrobial activity (MIC)
[3] = test system: Streptococcus pneumoniae ATCC6303; test: MIC, microbroth dilution (NCCLS); settings: rifS strain, THY Broth with 1 mg/mL catalase, 5% CO2, 37° C., read-out: Antimicrobial activity (MIC)
[4] = test system: Staphylococcus aureus ATCC29213; test: MIC, microbroth dilution (NCCLS); settings: rifS strain, Cation-Adjusted Mueller-Hinton Broth, 37° C., read-out: Antimicrobial activity (MIC)
[5] = test system: Escherichia coli ATCC25922; test: MIC, microbroth dilution (NCCLS); settings: rifS strain, Cation-Adjusted Mueller-Hinton Broth, 37° C., read-out: Antimicrobial activity (MIC)
[6] = test system: Enterococcus faecalis ATCC29212; test: MIC, microbroth dilution (NCCLS); settings: rifS strain, BHI Broth, 37° C., read-out: Antimicrobial activity (MIC)
[7] = test system: Staphylococcus aureus ATCC29213 rpoB^H418Y; test: microbe, parasite or virus in culture; settings: ATCC29213, read-out: Antimicrobial activity (MIC)
Experimental: (§1) Representative compounds were assayed for antimicrobial activity as follows: Minimum Inhibitory Concentrations (“MICs”) were determined by the microbroth dilution method as per NCCLS guidelines (National Committee for Clinical Laboratory Standards. 2000. Methods for dilution antimicrobial susceptibility tests for bacteria that grow aerobically, 5th ed. M7-A5. National Committee for Clinical Laboratory Standards, Wayne, Pa.), except that all growth incubations were conducted at 37° C. Bacterial cultures were tested in the following bacteriological media: S. aureus, S. epidermidis, and E. coli in Cation-Adjusted Mueller-Hinton Broth, S. pneumoniae in THY Broth supplemented with 1 mg/mL catalase under 5% CO2 atmosphere, S. pyogenes in THY Broth, E. faecalis in BHI Broth, H. influenzae in BHI Broth supplemented with 0.75 μL of 1 mg/mL NAD and 150 μL of 1 mg/ml hematin per 5 mL, and M. smegmatis in Middlebrook Broth plus ADC Enrichment.
(§2) S. aureus ATCC 29213 RpoB^H418Y is a rifampin-resistant strain with a mutation in RNA polymerase, the biological target of rifamycin antibiotics. […] S. aureus EN1252a gyrA^S84L grlA^S80F is a quinolone-resistant strain due to double mutations to DNA gyrase and topoisomerase IV, the two biological targets for quinolone antibiotics.

[8] = test system: Staphylococcus aureus EN1252a gyrA^S84L grlA^S80F; test: microbe, parasite or virus in culture; settings: read-out: Antimicrobial activity (MIC)
Experimental: as §1, §2

[9] = test system: Staphylococcus aureus ATCC29213 rpoB^D417Y; test: microbe, parasite or virus in culture; settings: ATCC29213, read-out: Antimicrobial activity (MIC)
Experimental: as §1, §2

[10] = test system: Haemophilus influenzae ATCC10211; test: MIC, microbroth dilution (NCCLS); settings: rifS strain, BHI Broth with NAD and hematin, 37° C., read-out: Antimicrobial activity (MIC)
[11] = test system: Mycobacterium smegmatis ATCC700084; test: MIC, microbroth dilution (NCCLS); settings: Mycolicibacterium smegmatis, rifS strain, Middlebrook Broth plus ADC Enrichment, 37° C., read-out: Antimicrobial activity (MIC)

Row | SMILES | MIC [1] [µg/mL] | MIC [2] [µg/mL] | MIC [3] [µg/mL] | MIC [4] [µg/mL] | MIC [5] [µg/mL] | MIC [6] [µg/mL] | MIC [7] [µg/mL] | MIC [8] [µg/mL] | MIC [9] [µg/mL] | MIC [10] [µg/mL] | MIC [11] [µg/mL]
1 | COc1c(N2CCCC(NC(=O)C3CN(C4=C5NC(=O)/C(C)=C\C=C\[C@H](C)[C@H](O)[C@@H](C)[C@@H](O)[C@@H](C)[C@H](OC(C)=O)[C@H](C)[C@@H](OC)/C=C/O[C@@]6(C)Oc7c(C)c(O)c(c(c7C6=O)C4=O)C5=O)C3)C2)c(F)cc2c(=O)c(C(=O)O)cn(C3CC3)c12 (mixture of isomers) [Example 46, 3-{3-[1-(3-Carboxy-1-cyclopropyl-6-fluoro-8-methoxy-4-oxo-1,4-dihydroquinolin-7-yl)-piperidin-3-ylcarbamoyl]-azetidin-1-yl}rifamycin S] | 0.008 to 0.063 | 0.008 to 0.063 | 0.008 to 0.125 | 0.004 to 0.5 | 0.125 to 8 | 2 to 32 | 0.06 to 16 | 0.004 to 0.5 | 0.06 to 32 | 0.125 to 2 | 0.5 to 64
2 | CO[C@H]1/C=C/O[C@@]2(C)Oc3c(C)c(O)c4c(c3C2=O)C(=O)C(NC2CCN(c3c(F)cc5c(=O)c(C(=O)O)cn(C6CC6)c5c3Cl)C2)=C(NC(=O)/C(C)=C\C=C\[C@H](C)[C@H](O)[C@@H](C)[C@@H](O)[C@@H](C)[C@H](OC(C)=O)[C@@H]1C)C4=O (mixture of isomers) [Example 7, (R/S)-3-[1-(3-Carboxy-8-chloro-1-cyclopropyl-6-fluoro-4-oxo-1,4-dihydroquinolin-7-yl)-pyrrolidin-3-ylamino]rifamycin S] | 0.008 to 0.063 (≈ 0.00755 to 0.0595 µM) | 0.008 to 0.063 (≈ 0.00755 to 0.0595 µM) | 0.008 to 0.125 (≈ 0.00755 to 0.118 µM) | 0.004 to 0.5 (≈ 0.00378 to 0.472 µM) | 0.125 to 8 (≈ 0.118 to 7.55 µM) | 2 to 32 (≈ 1.89 to 30.2 µM) | 0.06 to 16 (≈ 0.0566 to 15.1 µM) | 0.004 to 0.5 (≈ 0.00378 to 0.472 µM) | 0.06 to 32 (≈ 0.0566 to 30.2 µM) | 0.125 to 2 (≈ 0.118 to 1.89 µM) | 0.5 to 64
3 | CO[C@H]1/C=C/O[C@@]2(C)Oc3c(C)c(O)c4c(O)c(c(CNC5CCN(c6c(F)cc7c(=O)c(C(=O)O)cn(C8CC8)c7c6Cl)C5)c(O)c4c3C2=O)NC(=O)/C(C)=C\C=C\[C@H](C)[C@H](O)[C@@H](C)[C@@H](O)[C@@H](C)[C@H](OC(C)=O)[C@@H]1C (mixture of isomers) [Example 13, (R/S)-3-[1-(8-Chloro-3-carboxy-1-cyclopropyl-6-fluoro-4-oxo-1,4-dihydroquinolin-7-yl)-pyrrolidinyl-3-aminomethyl]rifamycin SV] | 0.008 to 0.063 (≈ 0.00744 to 0.0586 µM) | 0.008 to 0.063 (≈ 0.00744 to 0.0586 µM) | 0.008 to 0.125 (≈ 0.00744 to 0.116 µM) | 0.004 to 0.5 (≈ 0.00372 to 0.465 µM) | 0.125 to 8 (≈ 0.116 to 7.44 µM) | 2 to 32 (≈ 1.86 to 29.8 µM) | 0.06 to 16 (≈ 0.0558 to 14.9 µM) | 0.004 to 0.5 (≈ 0.00372 to 0.465 µM) | 0.06 to 32 (≈ 0.0558 to 29.8 µM) | 0.125 to 2 (≈ 0.116 to 1.86 µM) | 0.5 to 64
4 | COc1c(N2CCC(NC3=C4NC(=O)/C(C)=C\C=C\[C@H](C)[C@H](O)[C@@H](C)[C@@H](O)[C@@H](C)[C@H](OC(C)=O)[C@H](C)[C@@H](OC)/C=C/O[C@@]5(C)Oc6c(C)c(O)c(c(c6C5=O)C3=O)C4=O)C2)c(F)cc2c(=O)c(C(=O)O)cn(C3CC3)c12 (mixture of isomers) [Example 27] | 0.008 to 0.063 (≈ 0.00758 to 0.0597 µM) | 0.008 to 0.063 (≈ 0.00758 to 0.0597 µM) | 0.008 to 0.125 (≈ 0.00758 to 0.118 µM) | 0.004 to 0.5 (≈ 0.00379 to 0.474 µM) | 0.125 to 8 (≈ 0.118 to 7.58 µM) | 2 to 32 (≈ 1.9 to 30.3 µM) | 0.06 to 16 (≈ 0.0569 to 15.2 µM) | 0.004 to 0.5 (≈ 0.00379 to 0.474 µM) | 0.06 to 32 (≈ 0.0569 to 30.3 µM) | 0.125 to 2 (≈ 0.118 to 1.9 µM) | 0.5 to 64
5 | COc1c(N2CCC(N(C)C3=C4NC(=O)/C(C)=C\C=C\[C@H](C)[C@H](O)[C@@H](C)[C@@H](O)[C@@H](C)[C@H](OC(C)=O)[C@H](C)[C@@H](OC)/C=C/O[C@@]5(C)Oc6c(C)c(O)c(c(c6C5=O)C3=O)C4=O)C2)c(F)cc2c(=O)c(C(=O)O)cn(C3CC3)c12 (mixture of isomers) [Example 28] | 0.008 to 0.063 (≈ 0.00748 to 0.0589 µM) | 0.008 to 0.063 (≈ 0.00748 to 0.0589 µM) | 0.008 to 0.125 (≈ 0.00748 to 0.117 µM) | 0.004 to 0.5 (≈ 0.00374 to 0.468 µM) | 0.125 to 8 (≈ 0.117 to 7.48 µM) | 2 to 32 (≈ 1.87 to 29.9 µM) | 0.06 to 16 (≈ 0.0561 to 15 µM) | 0.004 to 0.5 (≈ 0.00374 to 0.468 µM) | 0.06 to 32 (≈ 0.0561 to 29.9 µM) | 0.125 to 2 (≈ 0.117 to 1.87 µM) | 0.5 to 64
